Data as given in patent publication US7282608B2, “Inhibitors of histone deacetylase” (Methylgene, Inc., priority 2002, dated 2007).
Where two headings read alike, the source gives them in different places.

Experiments:
[1] = biological target: T1, cloned recombinant human HDAC-1 (Homo sapiens, UniProt Q13547); assay: Human HDAC-1 Assay 1: [3H]-acetylated histone deacetylase assay; format: biochemical; conditions: Assay 1, unbracketed data; [3H]-acetylated histone substrate, 10 min at 37° C.
T1 construct: made in house; host or cells: Baculovirus insect cell expression system
Description: HDAC inhibitors were screened against a cloned recombinant human HDAC-1 enzyme expressed and purified from a Baculovirus insect cell expression system. For deacetylase assays, 20,000 cpm of the [^3H]-metabolically labeled acetylated histone substrate (M. Yoshida et al., J. Biol. Chem. 265(28): 17174–17179 (1990)) was incubated with 30 μg of the cloned recombinant hHDAC-1 for 10 minutes at 37° C. The reaction was stopped by adding acetic acid (0.04 M, final concentration) and HCl (250 mM, final concentration). […] For inhibition studies, the enzyme was preincubated with compounds at 4° C. for 30 minutes prior to initiation of the enzymatic assay. IC50 values for HDAC enzyme inhibitors were determined by performing dose response curves with individual compounds and determining the concentration of inhibitor producing fifty percent of the maximal inhibition. IC50 values for representative compounds assayed using this procedure are presented in the third column of Tables 7–10 (excepting bracketed data).

[2] = tested on: HCT116 cells; assay: MTT assay; format: cell-based; conditions: Homo sapiens, HCT-116, 72 hours
Description: HCT116 cells (2000/well) were plated into 96-well tissue culture plates one day before compound treatment. Compounds at various concentrations were added to the cells. The cells were incubated for 72 hours at 37° C. in 5% CO2 incubator. MTT (3-[4,5-dimethylthiazol-2-yl]-2,5 diphenyl tetrazolium bromide, Sigma) was added at a final concentration of 0.5 mg/ml and incubated with the cells for 4 hours before one volume of solubilization buffer (50% N,N-dimethylformamide, 20% SDS, pH 4.7) was added onto the cultured cells. After overnight incubation, solubilized dye was quantified by colorimetric reading at […] using a reference at […] using an MR700 plate reader (Dynatech Laboratories Inc.). OD values were converted to cell numbers according to a standard growth curve of the relevant cell line. The concentration which reduces cell numbers to 50% of that of solvent treated cells is determined as MTT IC50. IC50 values for representative compounds are presented in the fourth column of Tables 7–10.

[3] = tested on: acetylated histone H-4 in T24 human bladder cancer cells; assay: Histone H4 acetylation in whole cells by immunoblots; format: cell-based; conditions: 16 h, read-out: H4 Ac (T24) EC50
Description: T24 human bladder cancer cells growing in culture were incubated with HDAC inhibitors for 16 h. Histones were extracted from the cells after the culture period as described by M. Yoshida et al. (J. Biol. Chem. 265(28): 17174–17179 (1990)). […] of total histone protein was loaded onto SDS/PAGE and transferred to nitrocellulose membranes. Membranes were probed with polyclonal antibodies specific for acetylated histone H-4 (Upstate Biotech Inc.), followed by horse radish peroxidase conjugated secondary antibodies (Sigma). Enhanced Chemiluminescence (ECL) (Amersham) detection was performed using Kodak films (Eastman Kodak). Acetylated H-4 signal was quantified by densitometry. Representative data are presented in the fifth column of Table 7–10. Data are presented as the concentration effective for […] the acetylated H-4 signal by 50% (EC50).

T1 sequence (Q13547 whole entry): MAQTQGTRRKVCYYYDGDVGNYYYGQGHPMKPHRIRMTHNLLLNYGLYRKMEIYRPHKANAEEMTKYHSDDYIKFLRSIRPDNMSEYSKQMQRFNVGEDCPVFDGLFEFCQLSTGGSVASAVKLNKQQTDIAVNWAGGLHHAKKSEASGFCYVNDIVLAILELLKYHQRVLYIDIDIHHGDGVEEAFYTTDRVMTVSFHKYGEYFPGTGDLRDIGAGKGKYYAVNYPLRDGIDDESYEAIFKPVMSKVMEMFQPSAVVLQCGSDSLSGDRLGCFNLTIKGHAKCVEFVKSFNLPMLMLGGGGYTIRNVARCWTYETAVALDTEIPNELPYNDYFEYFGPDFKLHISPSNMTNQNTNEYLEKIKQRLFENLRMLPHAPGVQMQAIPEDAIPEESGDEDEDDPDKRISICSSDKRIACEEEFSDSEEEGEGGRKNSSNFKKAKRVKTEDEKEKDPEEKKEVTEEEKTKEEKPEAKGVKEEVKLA

Compound | IC50 [1] [µM] | IC50 [2] [µM] | EC50 ([3]; immunoblot densitometry) [µM] | EC50 ([3]; code 9999 of the footnote) [µM]
Nc1ccccc1NC(=O)c1ccc(/C=C/C(=O)N2CCCC2c2cccnc2)cc1 (racemic) [Vl, (rac)-N-(2-Amino-phenyl)-4-[3-oxo-3-(2-pyridin-3-yl-pyrrolidin-1-yl)-propenyl]-benzamide] | 12 | 4 |  | 
Nc1ccccc1NC(=O)c1ccc(C(=O)/C=C/c2ccc(Cl)c(Cl)c2)cc1 [Ia, N-(2-Amino-phenyl)-4-[3-(3,4-dichloro-phenyl)-acryloyl]-benzamide] | 5 | 1 |  | 
Nc1ccccc1NC(=O)c1ccc(C(=O)/C=C/c2cccnc2)cc1 [Ib, N-(2-Amino-phenyl)-4-(3-pyridin-3-yl-acryloyl)-benzamide] | 2 | 0.9 | 5 | 
Nc1ccccc1NC(=O)c1ccc(C(=O)/C=C/c2c(Cl)cccc2Cl)cc1 [Ic, N-(2-Amino-phenyl)-4-[3-(2,6-dichloro-phenyl)-acryloyl]benzamide] | 3 | 0.4 |  | > 25
COc1cc(/C=C/C(=O)c2ccc(C(=O)Nc3ccccc3N)cc2)cc(OC)c1OC [Id, N-(2-Amino-phenyl)-4-[3-(3,4,5-trimethoxy-phenyl)-acryloyl]-benzamide] | 3 | 0.6 | 3 | 
Nc1ccccc1NC(=O)c1ccc(C(=O)/C=C/c2ccc(Cl)cc2)cc1 [Ie, N-(2-Amino-phenyl)-4-[3-(4-chloro-phenyl)-acryloyl]-benzamide] | 6 | 9 |  | 
COc1cc(OC)c(/C=C/C(=O)c2ccc(C(=O)Nc3ccccc3N)cc2)c(OC)c1 [If, N-(2-Amino-phenyl)-4-[3-(2,4,6-trimethoxy-phenyl)-acryloyl]-benzamide] | 4 | 5 |  | 
Nc1ccccc1NC(=O)c1ccc(C(=O)/C=C/c2ccc(OC(F)F)c(OC3CC3)c2)cc1 [Ig, N-(2-Amino-phenyl)-4-[3-(3-cyclopropoxy-4-difluoromethoxy-phenyl)-acryloyl]-benzamide] | 3 | 0.7 |  | > 25
Nc1ccccc1NC(=O)c1ccc(C(=O)/C=C/c2ccc(C(F)(F)F)cc2)cc1 [Ih, N-(2-Amino-phenyl)-4-[3-(4-trifluoromethyl-phenyl)-acryloyl]-benzamide] | 5 | 1 | 5 | 
Nc1ccccc1NC(=O)c1ccc(C(=O)/C=C/c2cc(F)ccc2F)cc1 [Ii, N-(2-Amino-phenyl)-4-[3-(2,5-difluoro-phenyl)-acryloyl]-benzamide] | 3 | 1 | 3 | 
COc1ccc(/C=C/C(=O)c2ccc(C(=O)Nc3ccccc3N)cc2)cc1OC1CCCC1 [Ij, N-(2-Amino-phenyl)-4-[3-(3-cyclopentyloxy-4-methoxy-phenyl)-acryloyl]-benzamide] | 4 | 0.7 | 5 | 
COc1cc(NC(=O)/C=C/c2ccc(C(=O)Nc3ccccc3N)cc2)cc(OC)c1OC [Va, N-(2-Amino-phenyl)-4-[2-(3,4,5-trimethoxy-phenylcarbamoyl)-vinyl]-benzamide] | 5 | 3 |  | 
Nc1ccccc1NC(=O)c1ccc(/C=C/C(=O)NCc2cccnc2)cc1 [Vb, N-(2-Amino-phenyl)-4-{2-[(pyridin-3-ylmethyl)-carbamoyl]-vinyl}-benzamide] | 3 | 0.07 | 1 | 
COc1cc(CNC(=O)/C=C/c2ccc(C(=O)Nc3ccccc3N)cc2)cc(OC)c1OC [Vc, N-(2-Amino-phenyl)-4-[2-(3,4,5-trimethoxy-benzylcarbamoyl)-vinyl]-benzamide] | 3 | 0.9 | 2 | 
Nc1ccccc1NC(=O)c1ccc(/C=C/C(=O)NCCOc2ccccc2)cc1 [Vd, N-(2-Amino-phenyl)-4-[2-(2-phenoxy-ethylcarbamoyl)-vinyl]-benzamide] | 1 | 0.4 | 1 | 
Nc1ccccc1NC(=O)c1ccc(/C=C/C(=O)N2CCOCC2)cc1 [Ve, N-(2-Amino-phenyl)-4-(3-morpholin-4-yl-3-oxo-propenyl)-benzamide] | 20 | 6 |  | 

Compound | IC50 [1] [µM] | IC50 [2] [µM] | EC50 ([3]; immunoblot densitometry) [µM] | EC50 ([3]; code 9999 of the footnote) [µM]
Nc1ccccc1NC(=O)c1ccc(/C=C/C(=O)NCCc2cccnc2)cc1 [Vf, N-(2-Amino-phenyl)-4-[2-(2-pyridin-3-yl-ethylcarbamoyl)-vinyl]-benzamide] | 5 | 0.3 | 1 | 
Nc1ccccc1NC(=O)c1ccc(/C=C/C(=O)OCc2cccnc2)cc1 [Vg, Pyridin-3-ylmethyl 3-[4-(2-amino-phenylcarbamoyl)-phenyl]-acrylic ester] | 10 | 5 |  | 
Nc1ccccc1NC(=O)c1ccc(/C=C/C(=O)NC2Cc3ccccc3C2)cc1 [Vh, N-(2-Amino-phenyl)-4-[2-(indan-2-ylcarbamoyl)-vinyl]-benzamide] | 3 | 1 | 10 | 
Nc1ccccc1NC(=O)c1ccc(/C=C/C(=O)NCCc2ccccn2)cc1 [Vi, N-(2-Amino-phenyl)-4-[2-(2-pyridin-2-yl-ethylcarbamoyl)-vinyl]-benzamide] | 4 | 1 | 3 | 
Nc1ccccc1NC(=O)c1ccc(/C=C/C(=O)NCCc2c[nH]c3ccccc23)cc1 [Vj, N-(2-Amino-phenyl)-4-{2-[2-(1H-indol-3-yl)-ethylcarbamoyl]-vinyl}-benzamide] | 1 | 0.3 | 1 | 
COc1ccc(C2CCN(C(=O)/C=C/c3ccc(C(=O)Nc4ccccc4N)cc3)CC2)cc1OC [Vk, N-(2-Amino-phenyl)-4-{3-[4-(3,4-dimethoxy-phenyl)-piperidin-1-yl]-3-oxo-propenyl}-benzamide] | 13 | 2 |  | 
Nc1ccccc1NC(=O)c1ccc(/C=C/C(=O)N2CCN(c3ccccn3)CC2)cc1 [Vm, N-(2-Amino-phenyl)-4-[3-oxo-3-(4-pyridin-2-yl-piperazin-1-yl)-propenyl]-benzamide] | 11 | 6 |  | 
N#CCCN(Cc1cccnc1)C(=O)/C=C/c1ccc(C(=O)Nc2ccccc2N)cc1 [Vn, N-(2-Amino-phenyl)-4-{2-[(2-cyano-ethyl)-pyridin-3-ylmethyl-carbamoyl]-vinyl}-benzamide] | 7 | 3 |  | 
Nc1ccccc1NC(=O)c1ccc(/C=C/C(=O)N(Cc2cccnc2)Cc2cccnc2)cc1 [Vo, N-(2-Amino-phenyl)-4-[2-(bis-pyridin-3-ylmethyl-carbamoyl)-vinyl]-benzamide] | 15 | 4 |  | 
Nc1ccccc1NC(=O)c1ccc(/C=C/C(=O)N[C@H]2c3ccccc3C[C@H]2O)cc1 [Vp, (−)-(1S,2R)-N-(2-Amino-phenyl)-4-[2-(2-hydroxy-indan-1-ylcarbamoyl)-vinyl]-benzamide] | 13 | 2 |  | 
COc1ccc(NC/C=C/c2ccc(C(=O)Nc3ccccc3N)cc2)cc1OC1CCCC1 [XVa, N-(2-Amino-phenyl)-4-[3-(3-cyclopentyloxy-4-methoxy-phenylamino)-propenyl]-benzamide] | 2 | 1 | 1 | 
COc1cc(NC/C=C/c2ccc(C(=O)Nc3ccccc3N)cc2)cc(OC)c1OC [XVb, N-(2-Amino-phenyl)-4[3-(3,4,5-trimethoxy-phenylamino)-propenyl]-benzamide] | 4 | 0.1 | 3 | 
Cc1ccc(S(=O)(=O)NC/C=C/c2ccc(C(=O)Nc3ccccc3N)cc2)cc1 [XVg, N-(2-Amino-phenyl)-4-[3-(4-tolyl-sulfonylamino)-propenyl]-benzamide] | 12 | 5 |  | 
CC(C)(C)OC(=O)N(C/C=C/c1ccc(C(=O)Nc2ccccc2N)cc1)Cc1cccnc1 [XXIIh, t-Butyl {3-[4-(2-amino-phenylcarbamoyl)-phenyl]-ally}-pyridin-3-ylmethyl-carbamate] | 3 | 3 |  | 
Nc1ccccc1NC(=O)c1ccc(CCCc2ccccc2)cc1 [XXIXa, N-(2-Amino-phenyl)-4-(3-phenyl-propyl)-benzamide] | 2 | 0.6 |  | 
